# Assay results as given in paper PMC4685510, “A Cell Biologist’s Field Guide to Aurora Kinase Inhibitors” (Frontiers in Oncology, 2015).
# Assays:
# Assay in all cases: biochemical
# Type in all cases: biochemical
# [1] = target: 363 human kinases (including Aurora A/B/C) (Homo sapiens, UniProt P10721); settings: c-Kit, [ATP] 100 µM; for remaining activity at 0.1 µM: 100 nM; for remaining activity at 0.1 µM / remaining activity at 0.5 µM: read-out: % Enzyme Activity (relative to DMSO controls)
# Excerpt: (§1) However, the Aurora A/B selectivity ratios derived from our in vitro and in vivo data can be compared to prioritize inhibitors.
# [2] = target: 363 human kinases (including Aurora A/B/C) (Homo sapiens, UniProt P37173); settings: TGFBR2; for remaining activity at 0.1 µM: 100 nM; for remaining activity at 0.1 µM / remaining activity at 0.5 µM: read-out: % Enzyme Activity (relative to DMSO controls)
# 363 human kinases (including Aurora A/B/C) (Homo sapiens, UniProt P37173), sequence (P37173 23-567): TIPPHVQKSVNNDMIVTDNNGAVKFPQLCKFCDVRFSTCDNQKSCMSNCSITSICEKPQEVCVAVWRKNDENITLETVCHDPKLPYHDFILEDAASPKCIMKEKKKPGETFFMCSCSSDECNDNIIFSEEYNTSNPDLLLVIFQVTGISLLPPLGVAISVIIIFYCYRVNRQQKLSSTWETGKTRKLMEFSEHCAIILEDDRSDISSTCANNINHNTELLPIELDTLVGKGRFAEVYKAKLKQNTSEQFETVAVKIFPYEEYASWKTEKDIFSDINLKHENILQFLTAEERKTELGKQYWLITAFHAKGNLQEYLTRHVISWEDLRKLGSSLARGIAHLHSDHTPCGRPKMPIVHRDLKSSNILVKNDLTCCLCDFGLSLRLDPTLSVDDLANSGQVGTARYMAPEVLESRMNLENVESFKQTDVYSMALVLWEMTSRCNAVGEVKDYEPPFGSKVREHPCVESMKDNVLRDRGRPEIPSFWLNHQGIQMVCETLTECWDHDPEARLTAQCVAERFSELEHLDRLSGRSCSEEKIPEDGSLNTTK
# Excerpt: as §1
# [3] = target: 363 human kinases (including Aurora A/B/C) (Homo sapiens, UniProt Q14012); settings: CAMK1a, [ATP] 20 µM; for remaining activity at 0.1 µM: 100 nM; for remaining activity at 0.1 µM / remaining activity at 0.5 µM: read-out: % Enzyme Activity (relative to DMSO controls)
# 363 human kinases (including Aurora A/B/C) (Homo sapiens, UniProt Q14012), sequence (Q14012 whole entry): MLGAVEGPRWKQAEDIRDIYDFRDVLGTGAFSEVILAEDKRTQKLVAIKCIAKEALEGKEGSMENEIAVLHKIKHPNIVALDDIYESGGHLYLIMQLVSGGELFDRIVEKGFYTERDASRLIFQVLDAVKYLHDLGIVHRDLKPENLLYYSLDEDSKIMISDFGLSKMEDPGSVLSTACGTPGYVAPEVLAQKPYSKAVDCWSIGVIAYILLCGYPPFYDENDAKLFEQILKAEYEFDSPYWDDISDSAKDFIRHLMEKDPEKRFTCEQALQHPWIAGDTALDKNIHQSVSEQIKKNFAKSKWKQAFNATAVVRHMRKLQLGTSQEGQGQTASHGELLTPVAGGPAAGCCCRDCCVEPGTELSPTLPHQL
# Excerpt: as §1
# [4] = target: 363 human kinases (including Aurora A/B/C) (Homo sapiens, UniProt Q16288); settings: TRKC; for remaining activity at 0.1 µM: 100 nM
# Excerpt: as §1
# [5] = target: 363 human kinases (including Aurora A/B/C) (Homo sapiens, UniProt Q5S007); settings: LRRK2; for remaining activity at 0.1 µM: 100 nM; for remaining activity at 0.1 µM / remaining activity at 0.5 µM: read-out: % Enzyme Activity (relative to DMSO controls)
# 363 human kinases (including Aurora A/B/C) (Homo sapiens, UniProt Q5S007), sequence (Q5S007 whole entry): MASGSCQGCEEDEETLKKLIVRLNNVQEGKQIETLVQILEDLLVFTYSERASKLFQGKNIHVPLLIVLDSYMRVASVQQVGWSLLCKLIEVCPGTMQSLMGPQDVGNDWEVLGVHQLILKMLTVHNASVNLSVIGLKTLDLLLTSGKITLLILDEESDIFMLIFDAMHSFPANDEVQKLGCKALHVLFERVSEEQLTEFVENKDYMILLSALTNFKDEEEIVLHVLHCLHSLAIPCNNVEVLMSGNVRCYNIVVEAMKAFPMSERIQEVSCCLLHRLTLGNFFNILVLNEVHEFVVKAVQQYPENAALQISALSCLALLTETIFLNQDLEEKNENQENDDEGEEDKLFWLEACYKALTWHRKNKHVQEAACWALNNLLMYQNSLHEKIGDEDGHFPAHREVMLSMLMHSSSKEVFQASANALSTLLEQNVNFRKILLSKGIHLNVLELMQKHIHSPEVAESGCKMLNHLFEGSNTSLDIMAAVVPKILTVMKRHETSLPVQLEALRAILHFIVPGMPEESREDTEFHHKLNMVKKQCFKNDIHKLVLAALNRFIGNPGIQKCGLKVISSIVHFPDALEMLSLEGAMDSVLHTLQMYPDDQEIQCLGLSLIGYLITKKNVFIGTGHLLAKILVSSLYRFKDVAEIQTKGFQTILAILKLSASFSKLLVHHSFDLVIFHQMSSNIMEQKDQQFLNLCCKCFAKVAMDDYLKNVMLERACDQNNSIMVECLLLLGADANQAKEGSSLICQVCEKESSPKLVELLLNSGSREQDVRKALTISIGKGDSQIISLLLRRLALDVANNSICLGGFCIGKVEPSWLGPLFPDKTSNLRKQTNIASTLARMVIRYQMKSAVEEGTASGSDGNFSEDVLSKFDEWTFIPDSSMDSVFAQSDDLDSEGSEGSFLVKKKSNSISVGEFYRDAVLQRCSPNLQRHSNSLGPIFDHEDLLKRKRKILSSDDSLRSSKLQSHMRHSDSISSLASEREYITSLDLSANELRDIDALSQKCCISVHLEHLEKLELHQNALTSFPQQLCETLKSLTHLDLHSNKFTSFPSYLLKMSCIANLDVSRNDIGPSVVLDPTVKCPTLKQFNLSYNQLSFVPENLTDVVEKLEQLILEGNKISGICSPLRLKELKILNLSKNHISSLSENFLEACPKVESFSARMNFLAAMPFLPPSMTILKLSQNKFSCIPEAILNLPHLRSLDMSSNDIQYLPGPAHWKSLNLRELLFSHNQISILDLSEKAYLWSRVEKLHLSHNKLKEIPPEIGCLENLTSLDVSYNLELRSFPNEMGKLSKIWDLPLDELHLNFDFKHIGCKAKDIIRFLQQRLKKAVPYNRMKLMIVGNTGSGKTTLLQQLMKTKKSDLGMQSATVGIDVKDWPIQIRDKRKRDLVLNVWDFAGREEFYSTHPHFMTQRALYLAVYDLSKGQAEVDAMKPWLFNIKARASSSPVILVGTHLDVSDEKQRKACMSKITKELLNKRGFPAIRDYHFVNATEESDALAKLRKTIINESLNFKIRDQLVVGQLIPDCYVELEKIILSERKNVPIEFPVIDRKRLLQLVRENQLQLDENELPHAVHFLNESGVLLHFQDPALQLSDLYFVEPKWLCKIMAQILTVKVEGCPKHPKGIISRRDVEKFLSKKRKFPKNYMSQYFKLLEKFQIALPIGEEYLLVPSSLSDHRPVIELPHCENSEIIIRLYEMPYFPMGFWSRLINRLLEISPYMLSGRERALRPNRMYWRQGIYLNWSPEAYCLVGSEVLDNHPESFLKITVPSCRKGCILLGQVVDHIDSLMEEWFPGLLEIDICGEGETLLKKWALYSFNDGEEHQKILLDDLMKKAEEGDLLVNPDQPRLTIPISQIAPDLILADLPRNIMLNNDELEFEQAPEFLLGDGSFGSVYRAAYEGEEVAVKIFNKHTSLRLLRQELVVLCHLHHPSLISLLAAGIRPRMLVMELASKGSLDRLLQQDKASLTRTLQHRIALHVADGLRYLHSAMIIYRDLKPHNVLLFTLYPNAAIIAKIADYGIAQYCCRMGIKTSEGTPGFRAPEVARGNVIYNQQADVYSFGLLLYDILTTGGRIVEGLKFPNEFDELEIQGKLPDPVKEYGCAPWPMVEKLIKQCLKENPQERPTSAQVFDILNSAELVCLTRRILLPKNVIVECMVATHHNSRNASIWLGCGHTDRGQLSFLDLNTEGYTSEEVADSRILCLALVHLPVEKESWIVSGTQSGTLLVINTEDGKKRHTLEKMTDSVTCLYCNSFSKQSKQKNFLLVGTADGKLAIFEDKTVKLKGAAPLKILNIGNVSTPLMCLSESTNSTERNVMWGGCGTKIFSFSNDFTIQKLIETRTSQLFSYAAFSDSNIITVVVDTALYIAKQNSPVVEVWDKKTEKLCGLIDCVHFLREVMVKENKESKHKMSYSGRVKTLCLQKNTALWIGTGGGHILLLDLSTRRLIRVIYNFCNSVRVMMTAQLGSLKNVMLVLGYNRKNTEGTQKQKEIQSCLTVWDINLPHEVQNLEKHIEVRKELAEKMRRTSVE
# Excerpt: as §1
# [6] = target: T1, 363 human kinases (including Aurora A/B/C) (Homo sapiens, UniProt Q8WXR4); settings: MYO3b; for remaining activity at 0.1 µM: 100 nM; for remaining activity at 0.1 µM / remaining activity at 0.5 µM: read-out: % Enzyme Activity (relative to DMSO controls)
# T1 sequence (Q8WXR4 1-1341): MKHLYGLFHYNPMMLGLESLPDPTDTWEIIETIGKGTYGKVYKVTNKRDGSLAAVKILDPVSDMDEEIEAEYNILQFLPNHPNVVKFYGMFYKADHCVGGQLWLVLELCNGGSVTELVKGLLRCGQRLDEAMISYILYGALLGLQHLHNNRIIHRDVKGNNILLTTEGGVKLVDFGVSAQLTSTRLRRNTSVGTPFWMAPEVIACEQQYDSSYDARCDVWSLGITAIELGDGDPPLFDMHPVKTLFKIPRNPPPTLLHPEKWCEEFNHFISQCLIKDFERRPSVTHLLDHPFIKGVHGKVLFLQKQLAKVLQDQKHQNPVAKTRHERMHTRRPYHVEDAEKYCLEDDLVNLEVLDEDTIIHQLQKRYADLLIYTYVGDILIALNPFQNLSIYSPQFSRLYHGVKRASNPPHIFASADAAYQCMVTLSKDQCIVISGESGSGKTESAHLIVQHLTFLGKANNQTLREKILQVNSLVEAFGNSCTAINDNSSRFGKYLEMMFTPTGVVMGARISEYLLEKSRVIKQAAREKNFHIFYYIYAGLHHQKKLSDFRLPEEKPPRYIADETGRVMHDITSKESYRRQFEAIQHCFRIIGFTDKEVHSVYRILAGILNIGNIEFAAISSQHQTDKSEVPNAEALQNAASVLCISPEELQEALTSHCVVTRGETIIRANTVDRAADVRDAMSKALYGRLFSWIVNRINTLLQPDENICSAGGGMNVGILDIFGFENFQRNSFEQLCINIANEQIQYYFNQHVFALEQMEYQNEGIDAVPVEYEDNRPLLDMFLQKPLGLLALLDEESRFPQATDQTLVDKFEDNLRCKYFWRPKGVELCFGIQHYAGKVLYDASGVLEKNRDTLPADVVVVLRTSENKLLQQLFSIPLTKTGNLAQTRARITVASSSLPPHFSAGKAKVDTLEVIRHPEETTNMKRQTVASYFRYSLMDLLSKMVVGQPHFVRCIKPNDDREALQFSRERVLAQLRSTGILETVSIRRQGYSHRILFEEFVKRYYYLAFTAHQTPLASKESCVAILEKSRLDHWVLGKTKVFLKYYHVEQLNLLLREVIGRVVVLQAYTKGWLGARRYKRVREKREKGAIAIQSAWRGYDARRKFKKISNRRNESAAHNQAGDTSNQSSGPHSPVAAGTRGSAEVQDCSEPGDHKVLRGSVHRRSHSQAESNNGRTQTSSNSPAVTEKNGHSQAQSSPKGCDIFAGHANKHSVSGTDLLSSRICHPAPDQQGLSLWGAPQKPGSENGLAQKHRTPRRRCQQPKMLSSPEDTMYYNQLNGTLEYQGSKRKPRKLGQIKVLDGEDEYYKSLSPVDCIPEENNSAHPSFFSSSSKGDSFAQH
# Excerpt: as §1
# [7] = target: 363 human kinases (including Aurora A/B/C) (Homo sapiens, UniProt Q9NYY3); settings: PLK2; for remaining activity at 0.1 µM: 100 nM; for remaining activity at 0.1 µM / remaining activity at 0.5 µM: read-out: % Enzyme Activity (relative to DMSO controls)
# 363 human kinases (including Aurora A/B/C) (Homo sapiens, UniProt Q9NYY3), sequence (Q9NYY3 whole entry): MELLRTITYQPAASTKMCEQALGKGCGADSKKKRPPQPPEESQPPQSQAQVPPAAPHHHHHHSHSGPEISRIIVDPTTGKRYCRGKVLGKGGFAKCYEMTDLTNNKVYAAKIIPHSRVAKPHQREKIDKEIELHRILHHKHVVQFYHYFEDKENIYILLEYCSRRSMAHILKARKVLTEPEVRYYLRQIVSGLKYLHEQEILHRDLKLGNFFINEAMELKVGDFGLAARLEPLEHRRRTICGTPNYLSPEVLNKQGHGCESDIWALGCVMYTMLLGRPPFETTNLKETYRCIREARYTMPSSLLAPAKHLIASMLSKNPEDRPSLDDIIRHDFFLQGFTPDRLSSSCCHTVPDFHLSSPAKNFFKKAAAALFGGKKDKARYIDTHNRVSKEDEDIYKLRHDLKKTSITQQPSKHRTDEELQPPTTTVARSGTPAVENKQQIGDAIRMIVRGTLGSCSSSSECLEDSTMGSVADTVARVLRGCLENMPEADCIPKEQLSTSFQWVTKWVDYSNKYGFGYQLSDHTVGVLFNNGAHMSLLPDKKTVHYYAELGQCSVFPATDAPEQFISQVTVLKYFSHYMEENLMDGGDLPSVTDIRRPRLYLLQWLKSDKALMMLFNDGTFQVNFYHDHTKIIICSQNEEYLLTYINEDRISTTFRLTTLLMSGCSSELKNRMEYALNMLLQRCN
# Excerpt: as §1
# [8] = target: T2, 363 human kinases (including Aurora A/B/C) (Homo sapiens, UniProt Q9Y2U5); settings: MEKK2; for remaining activity at 0.1 µM: 100 nM; for remaining activity at 0.1 µM / remaining activity at 0.5 µM: read-out: % Enzyme Activity (relative to DMSO controls)
# T2 sequence (Q9Y2U5 1-619): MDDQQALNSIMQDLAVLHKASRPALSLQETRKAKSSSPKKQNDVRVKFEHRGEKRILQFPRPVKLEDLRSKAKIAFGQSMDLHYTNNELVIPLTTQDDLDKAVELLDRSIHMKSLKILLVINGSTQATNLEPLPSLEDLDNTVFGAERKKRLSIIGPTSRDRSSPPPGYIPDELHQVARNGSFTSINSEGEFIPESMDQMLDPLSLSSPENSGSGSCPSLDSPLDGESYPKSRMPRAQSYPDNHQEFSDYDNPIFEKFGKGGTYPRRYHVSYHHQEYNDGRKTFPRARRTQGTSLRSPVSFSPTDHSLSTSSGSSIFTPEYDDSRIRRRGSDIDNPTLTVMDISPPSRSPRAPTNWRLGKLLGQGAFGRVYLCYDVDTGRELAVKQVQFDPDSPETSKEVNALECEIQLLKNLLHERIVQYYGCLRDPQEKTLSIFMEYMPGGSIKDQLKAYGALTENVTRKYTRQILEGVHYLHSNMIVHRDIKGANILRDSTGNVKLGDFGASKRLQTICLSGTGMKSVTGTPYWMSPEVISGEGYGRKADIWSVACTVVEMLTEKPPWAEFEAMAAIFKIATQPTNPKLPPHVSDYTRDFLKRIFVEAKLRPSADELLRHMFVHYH
# Excerpt: as §1
# [9] = read-out: % Enzyme Activity (relative to DMSO controls)
# 363 human kinases (including Aurora A/B/C) (Homo sapiens, UniProt P10721), sequence (P10721 26-976): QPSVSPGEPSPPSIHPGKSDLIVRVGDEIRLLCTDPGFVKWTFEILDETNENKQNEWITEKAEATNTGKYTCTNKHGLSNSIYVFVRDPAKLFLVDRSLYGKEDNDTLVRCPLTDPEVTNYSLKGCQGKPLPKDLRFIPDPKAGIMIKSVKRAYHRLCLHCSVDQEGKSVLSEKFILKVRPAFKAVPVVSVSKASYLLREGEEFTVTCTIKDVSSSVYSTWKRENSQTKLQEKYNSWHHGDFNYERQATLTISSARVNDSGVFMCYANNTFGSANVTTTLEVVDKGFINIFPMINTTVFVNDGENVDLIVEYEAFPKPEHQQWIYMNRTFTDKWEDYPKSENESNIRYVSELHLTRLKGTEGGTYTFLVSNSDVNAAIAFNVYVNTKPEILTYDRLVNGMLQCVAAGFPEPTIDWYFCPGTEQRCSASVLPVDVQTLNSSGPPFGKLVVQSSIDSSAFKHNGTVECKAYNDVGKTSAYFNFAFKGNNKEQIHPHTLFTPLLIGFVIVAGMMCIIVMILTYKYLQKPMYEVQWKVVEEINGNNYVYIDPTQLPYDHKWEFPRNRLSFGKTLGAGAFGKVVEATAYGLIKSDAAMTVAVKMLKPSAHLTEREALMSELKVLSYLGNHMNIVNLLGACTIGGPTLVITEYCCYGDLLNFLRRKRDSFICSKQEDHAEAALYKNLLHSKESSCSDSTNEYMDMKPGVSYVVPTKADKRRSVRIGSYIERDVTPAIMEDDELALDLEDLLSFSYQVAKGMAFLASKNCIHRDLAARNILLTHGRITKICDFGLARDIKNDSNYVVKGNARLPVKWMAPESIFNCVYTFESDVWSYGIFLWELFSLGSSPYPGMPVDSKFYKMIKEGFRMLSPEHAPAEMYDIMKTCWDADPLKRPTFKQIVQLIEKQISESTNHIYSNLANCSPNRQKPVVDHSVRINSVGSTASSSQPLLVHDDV
SMILES,remaining activity at 0.1 µM [1],remaining activity at 0.1 µM [2],remaining activity at 0.1 µM [3],"remaining activity at 0.1 µM [4, 9]",remaining activity at 0.1 µM [5],remaining activity at 0.1 µM [6],remaining activity at 0.1 µM [7],remaining activity at 0.1 µM [8],remaining activity at 0.5 µM ([1]; 500 nM),remaining activity at 0.5 µM ([2]; 500 nM),remaining activity at 0.5 µM ([3]; 500 nM),remaining activity at 0.5 µM ([5]; 500 nM),remaining activity at 0.5 µM ([6]; 500 nM),remaining activity at 0.5 µM ([7]; 500 nM),remaining activity at 0.5 µM ([8]; 500 nM),further results
CCn1cc(-c2ccnc3[nH]c(-c4cccc(CN(C)C)c4)cc23)c(-c2ccc(NC(=O)N(C)C)cc2)n1 [GSK1070916],76.5%,121%,98.6%,78.6%,92.1%,102%,91.2%,81.7%,–,–,–,–,–,–,–,–
O=C(O)[C@]1(Cc2cccc(Nc3nccs3)n2)CC[C@@H](Oc2cccc(Cl)c2F)CC1 [MK-5108],107%,92.6%,102%,0.99%,52.7%,99.8%,88.8%,102%,85.6%,86.3%,97.1%,14.2%,100%,85.1%,83.9%,–
O=C(c1cccc(Cl)c1F)N1CCN(Cc2cccc(Nc3nccs3)n2)CC1 [MK-8745],–,–,–,–,–,–,–,–,88.2%,109%,95.5%,92.8%,107%,81.9%,97.5%,"% Enzyme Activity (relative to DMSO controls) ([1]; 500 nM): 86.62%; % Enzyme Activity (relative to DMSO controls) ([2]; 500 nM): 108.29%; % Enzyme Activity (relative to DMSO controls) ([3]; 500 nM): 94.06%; % Enzyme Activity (relative to DMSO controls) ([4]; 500 nM): 3.01%; remaining activity at 0.5 µM ([4]; 500 nM, read-out: % Enzyme Activity (relative to DMSO controls)): 3.12%; % Enzyme Activity (relative to DMSO controls) ([5]; 500 nM): 88.73%; % Enzyme Activity (relative to DMSO controls) ([6]; 500 nM): 106.69%; % Enzyme Activity (relative to DMSO controls) ([7]; 500 nM): 81.10%; % Enzyme Activity (relative to DMSO controls) ([8]; 500 nM): 96.27%"
